Values quoted from earlier work, collected in US9446032B2, “Methods for treating cardiovascular disorders” (WOCKHARDT LIMITED, priority 2011, dated 2016).

Tests used:
[1] = incomplete owing to extensive first pass metabolism

solubility in ethanol (ethanol)	solubility in water (water)	bioavailability [1]	solubility (BCS)	Compound
sparingly soluble	slightly soluble	–	–	CCOC(=O)C1=C(COCCN)NC(C)=C(C(=O)OC)C1c1ccccc1Cl (stereo not shown) [Amlodipine besylate]
–	–	about 50%	highly soluble	COCCc1ccc(OCC(O)CNC(C)C)cc1 (stereo not shown) [Metoprolol]
